Experimental data published in ChEMBL document CHEMBL1201862, “PubChem BioAssay data set” (2004).
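In this assay, cells in 96-well plates receive the compound at five concentrations for 48 hours. Endpoints are linearly interpolated between the surrounding concentrations. GI50 = concentration required for 50% inhibition of growth.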 Active and inactive are the calls of the source. Cut-off read from the data, not from the text of the source: active = GI50 up to about 1.1 µM and inactive = higher.

Columns and labels:
Test in all cases: NCI tumour cell line growth inhibition, 48 h
NCI-H23 = tested on: NCI-H23
EKVX = tested on: EKVX
MDA-MB-435 = tested on: MDA-MB-435
SN12C = tested on: SN12C
PC-3 = tested on: PC-3
NCI-H226 = tested on: NCI-H226
786-0 = tested on: 786-0
M14 = tested on: M14
BT-549 = tested on: BT-549
MDA-MB-231 = tested on: MDA-MB-231
HT-29 = tested on: HT-29
NCI/ADR-RES = tested on: NCI/ADR-RES
NCI-H460 = tested on: NCI-H460
SF-539 = tested on: SF-539
SNB-75 = tested on: SNB-75
LOX IMVI = tested on: LOX IMVI
HCC 2998 = tested on: HCC 2998
SK-MEL-2 = tested on: SK-MEL-2
SK-MEL-5 = tested on: SK-MEL-5
KM12 = tested on: KM12

Structure (SMILES)	GI50 (NCI-H23)	GI50 (EKVX)	GI50 (MDA-MB-435)	GI50 (SN12C)	GI50 (PC-3)	GI50 (NCI-H226)	GI50 (786-0)	GI50 (M14)	GI50 (BT-549)	GI50 (MDA-MB-231)	GI50 (HT-29)	GI50 (NCI/ADR-RES)	GI50 (NCI-H460)	GI50 (SF-539)	GI50 (SNB-75)	GI50 (LOX IMVI)	GI50 (HCC 2998)	GI50 (SK-MEL-2)	GI50 (SK-MEL-5)	GI50 (KM12)
Cc1cc(S(=O)(=O)Nc2nnc3cc(C(F)(F)F)cc(C)n23)c(S)cc1Cl	> 100 µM (inactive)	> 100 µM (inactive)	> 65.8 µM (inactive)	> 100 µM (inactive)	> 95.3 µM (inactive)	> 54.6 µM (inactive)	> 80.5 µM (inactive)	77.3 µM (inactive)	> 35.2 µM (inactive)	> 83 µM (inactive)	> 100 µM (inactive)	45.5 µM (inactive)	19.5 µM (inactive)	34.4 µM (inactive)	> 71.1 µM (inactive)	> 100 µM (inactive)	33.7 µM (inactive)	30.7 µM (inactive)	64.4 µM (inactive)	45.6 µM (inactive)
Cc1ccc(-c2nc3cc([N+](=O)[O-])ccc3[nH]2)cc1	> 100 µM (inactive)	51.6 µM (inactive)	> 100 µM (inactive)	> 100 µM (inactive)	38.9 µM (inactive)	> 100 µM (inactive)	> 100 µM (inactive)	> 100 µM (inactive)	> 100 µM (inactive)	> 100 µM (inactive)	39.2 µM (inactive)	40.8 µM (inactive)	42.8 µM (inactive)	> 100 µM (inactive)	> 100 µM (inactive)	80.5 µM (inactive)	43.4 µM (inactive)	> 100 µM (inactive)	64.7 µM (inactive)	54 µM (inactive)
Cc1c(C)c(C)c(-n2c(=O)n(C)c(=O)n2-c2cc(C(C)(C)C)cc(C(C)(C)C)c2O)c(C)c1C	7.91 µM (inactive)	10.5 µM (inactive)	11.9 µM (inactive)	9.44 µM (inactive)	3.03 µM (inactive)	8.32 µM (inactive)	10.4 µM (inactive)	10.2 µM (inactive)	13.5 µM (inactive)	3.91 µM (inactive)	3.64 µM (inactive)	8.38 µM (inactive)	11.4 µM (inactive)	10.5 µM (inactive)	4.14 µM (inactive)	13.6 µM (inactive)	9.93 µM (inactive)	6.47 µM (inactive)	6.21 µM (inactive)	11.8 µM (inactive)
CCn1c(=O)c2cn[nH]c2n(C)c1=O	> 100 µM (inactive)	> 100 µM (inactive)	> 100 µM (inactive)	> 100 µM (inactive)	> 100 µM (inactive)	> 100 µM (inactive)	> 100 µM (inactive)	> 100 µM (inactive)	> 100 µM (inactive)	> 100 µM (inactive)	> 100 µM (inactive)	> 100 µM (inactive)	> 100 µM (inactive)	> 100 µM (inactive)	> 100 µM (inactive)	> 100 µM (inactive)	> 100 µM (inactive)	> 100 µM (inactive)	> 100 µM (inactive)	> 100 µM (inactive)
COC(=O)CN1SC2(SC13C(C)(C)C(=O)C3(C)C)C(C)(C)C(=O)C2(C)C	> 100 µM (inactive)	63.4 µM (inactive)	56.2 µM (inactive)	48.3 µM (inactive)	29.2 µM (inactive)	22.1 µM (inactive)	> 100 µM (inactive)	> 100 µM (inactive)	27.8 µM (inactive)	77.3 µM (inactive)	> 100 µM (inactive)	34.1 µM (inactive)	> 10 µM (inactive)	> 100 µM (inactive)	37.8 µM (inactive)	46.9 µM (inactive)	80.2 µM (inactive)	60.7 µM (inactive)	35.2 µM (inactive)	44.6 µM (inactive)
Nc1c(-c2ccc(Cl)c(Cl)c2)c2ccc([N+](=O)[O-])cc2c(=O)n1-c1nc2ccccc2s1	0.266 µM (active)	0.446 µM (active)	0.582 µM (active)	0.335 µM (active)	0.311 µM (active)	0.586 µM (active)	0.767 µM (active)	0.675 µM (active)	0.762 µM (active)	0.614 µM (active)	0.824 µM (active)	0.577 µM (active)	0.386 µM (active)	2.65 µM (inactive)	1.07 µM (active)	0.538 µM (active)	18.6 µM (inactive)	0.369 µM (active)	0.328 µM (active)	0.64 µM (active)
Cc1n(Cc2ccccc2)c2c([n+]1C)C(=O)c1ccccc1C2=O	0.0434 µM (active)	0.181 µM (active)	0.183 µM (active)	0.0318 µM (active)	0.0838 µM (active)	0.237 µM (active)	0.0845 µM (active)	0.0902 µM (active)	0.0822 µM (active)	0.0583 µM (active)	0.0417 µM (active)	21.1 µM (inactive)	0.108 µM (active)	0.026 µM (active)	0.0736 µM (active)	0.0473 µM (active)	0.236 µM (active)	0.132 µM (active)	0.0211 µM (active)	0.0605 µM (active)
COc1ccc2oc(=O)c(CC=C(C)C)c(O)c2c1C	> 100 µM (inactive)	> 100 µM (inactive)	> 100 µM (inactive)	> 100 µM (inactive)	> 100 µM (inactive)	> 100 µM (inactive)	> 100 µM (inactive)	> 100 µM (inactive)	> 100 µM (inactive)	> 100 µM (inactive)	> 100 µM (inactive)	> 100 µM (inactive)	> 100 µM (inactive)	> 100 µM (inactive)	> 100 µM (inactive)	> 100 µM (inactive)	> 100 µM (inactive)	> 100 µM (inactive)	> 100 µM (inactive)	> 100 µM (inactive)
COc1cc(C2c3cc4c(cc3OC(NN)C2C)OCO4)cc(OC)c1OC (stereo not given)	1.11 µM (active)	10.2 µM (inactive)	0.157 µM (active)	0.757 µM (active)	0.556 µM (active)	0.979 µM (active)	0.653 µM (active)	0.483 µM (active)	9.12 µM (inactive)	4.09 µM (inactive)	0.36 µM (active)	1.06 µM (active)	0.489 µM (active)	0.247 µM (active)	0.289 µM (active)	0.458 µM (active)	0.536 µM (active)	0.647 µM (active)	0.478 µM (active)	0.466 µM (active)
